We go through four compounds from article PMC6275283, “Inhibitors of BMP‐1/tolloid‐like proteinases: efficacy, selectivity and cellular toxicity” (FEBS Open Bio, 2018).

One assay has as its target T1, Meprin α (Homo sapiens, UniProt Q16819).
T1 construct: gene MEP1A
T1 sequence (Q16819 66-712): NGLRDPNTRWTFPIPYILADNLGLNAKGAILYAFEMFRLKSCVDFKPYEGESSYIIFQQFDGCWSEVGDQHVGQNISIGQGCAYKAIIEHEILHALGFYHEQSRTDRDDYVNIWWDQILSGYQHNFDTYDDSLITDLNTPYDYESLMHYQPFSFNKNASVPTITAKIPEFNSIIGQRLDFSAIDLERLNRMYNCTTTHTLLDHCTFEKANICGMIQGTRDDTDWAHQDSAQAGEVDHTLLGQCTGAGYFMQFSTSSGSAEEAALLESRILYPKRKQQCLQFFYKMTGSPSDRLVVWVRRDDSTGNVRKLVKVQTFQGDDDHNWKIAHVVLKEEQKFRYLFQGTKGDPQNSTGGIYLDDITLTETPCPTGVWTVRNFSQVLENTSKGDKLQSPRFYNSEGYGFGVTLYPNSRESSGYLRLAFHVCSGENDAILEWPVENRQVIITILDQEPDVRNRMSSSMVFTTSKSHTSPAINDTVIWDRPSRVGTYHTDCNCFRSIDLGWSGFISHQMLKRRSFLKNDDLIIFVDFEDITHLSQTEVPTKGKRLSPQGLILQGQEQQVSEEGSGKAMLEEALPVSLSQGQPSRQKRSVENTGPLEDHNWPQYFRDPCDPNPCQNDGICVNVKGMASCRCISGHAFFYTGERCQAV
The experiment in a line: fluorogenic peptide cleavage assay. Type of assay: biochemical. From the text: fluorogenic peptide cleavage assay on Meprin α

For another assay, the target named is T2, Meprin β (Homo sapiens, UniProt Q16820).
T2 construct: gene MEP1B
T2 sequence (Q16820 62-652): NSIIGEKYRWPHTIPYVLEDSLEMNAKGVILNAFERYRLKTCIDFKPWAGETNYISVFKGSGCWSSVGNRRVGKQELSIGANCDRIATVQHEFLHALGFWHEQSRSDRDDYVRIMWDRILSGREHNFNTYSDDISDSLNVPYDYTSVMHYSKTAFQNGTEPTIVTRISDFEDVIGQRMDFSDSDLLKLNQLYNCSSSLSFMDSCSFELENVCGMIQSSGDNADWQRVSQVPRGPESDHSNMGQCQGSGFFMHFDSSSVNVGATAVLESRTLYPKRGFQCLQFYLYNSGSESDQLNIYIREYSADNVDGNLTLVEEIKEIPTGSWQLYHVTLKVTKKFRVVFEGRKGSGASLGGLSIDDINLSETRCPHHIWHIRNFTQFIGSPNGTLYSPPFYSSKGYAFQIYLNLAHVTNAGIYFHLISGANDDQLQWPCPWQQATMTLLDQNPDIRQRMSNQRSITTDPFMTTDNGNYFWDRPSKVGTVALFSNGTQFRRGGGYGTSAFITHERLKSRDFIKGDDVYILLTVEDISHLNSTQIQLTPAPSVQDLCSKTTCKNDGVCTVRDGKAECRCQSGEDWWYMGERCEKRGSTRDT
Kind of assay: fluorogenic peptide cleavage assay. It counts as biochemical. The text has this:
fluorogenic peptide cleavage assay on Meprin β

Setting [1] is: […] Mca-YVADAPK-Dnp, […] enzyme, […] HEPES pH […] NaCl, […] CaCl2, […] °C.

Read-outs that look alike come from different tables or passages of the source. Some results are limits rather than exact numbers.

As to `CCCCC[C@H](CC(=O)NO)C(=O)N[C@H](C(=O)N1CCC[C@H]1CO)C(C)C` [Actinonin], the figures for the concentration for half-maximal inhibition (IC50) against Meprin α and against Meprin β were 55 ± 11 nM and 744 ± 29 nM, respectively.
For `CNC(=O)[C@H](Cc1c[nH]c2ccccc12)NC(=O)[C@@H](CC(=O)NO)CC(C)C` [GM6001] the same measures were 185 ± 12 nM and above 10000 nM.
Turning to `COc1ccc(CCN(CCC(=O)NO)S(=O)(=O)c2ccc(NC(=O)NCCc3ccccc3)cc2)cc1` [S33A], the values for the IC50 at Meprin α and against Meprin β were 393 ± 82 nM and above 10000 nM, respectively.
As to FG‐2575, the results for the half-inhibitory concentration (IC50) at Meprin α (setting [1]) and against Meprin β (setting [1]) were above 1000 nM and above 10000 nM, respectively.
